ChEMBL document CHEMBL5154912, “Penicillin Derivatives Inhibit the SARS-CoV-2 Main Protease by Reaction with Its Nucleophilic Cysteine” (J Med Chem, 2022)
The source made the active and inactive calls. The calls are words filed in the database; no cut-off is given here.

Tests used:
[1] = target: Replicase polyprotein 1ab (Severe acute respiratory syndrome coronavirus 2) (UniProt P0DTD1); assay: Inhibition of recombinant SARS-CoV-2 Main protease at Cys145 residue by covalent modification at 33 uM incubated for 45 mins by MS analysis
[2] = target: Replicase polyprotein 1ab (Severe acute respiratory syndrome coronavirus 2, UniProt P0DTD1); assay: Inhibition of recombinant SARS-CoV-2 Main protease using ALNDFSNSGSDVLYQPPQTSITSAVLQ/SGFRKMAFPS-NH2 as substrate preincubated for 45 to 75 mins followed by substrate addition measured after 6 mins by SPE-MS inhibition assay
[3] = target: Replicase polyprotein 1ab (Severe acute respiratory syndrome coronavirus 2) (UniProt P0DTD1); assay: Inhibition of recombinant SARS-CoV-2 Main protease at Cys145 residue by non-covalent binding incubated for 45 mins by MS analysis
[4] = target: Replicase polyprotein 1ab (Severe acute respiratory syndrome coronavirus 2) (UniProt P0DTD1); assay: Inhibition of recombinant SARS-CoV-2 Main protease at Cys145 residue by covalent modification at 10 uM incubated for 45 mins by SPE-MS analysis

SMILES: C#CCOC(=O)[C@@H]1N2C(=O)[C@@H](NC(=O)COc3ccccc3)[C@H]2S(=O)(=O)C1(C)C
- inhibition [1]: Active

SMILES: CC1(C)[C@H](C(=O)OCOc2ccccc2)N2C(=O)[C@@H](NC(=O)COc3ccccc3)[C@H]2S1(=O)=O
- IC50 [2]: 6.6 µM

SMILES: CC1(C)[C@H](C(=O)OCc2ccccc2)N2C(=O)[C@@H](NC(=O)COc3ccccc3)C[C@H]2S1(=O)=O
- inhibition [3]: Active

SMILES: CC1(C)[C@H](C(=O)OCc2ccccc2)N2C(=O)[C@@H](NC(=O)COc3ccccc3)[C@H]2S1(=O)=O
- inhibition [4]: Active
